Converted amounts (≈) assume the structure as drawn.
Test system: C.albicans cells
Experiment: Effective inhibitory concentrations for C.albicans cells grown in YPD medium
Type: cell-based, Candida albicans
Conditions: C.albicans cells grown in YPD medium at 30° C.

SMILES: CN[C@@H]1[C@@H](O)[C@@H](O[C@@H]2[C@@H](O)[C@H](O[C@H]3O[C@H]([C@@H](C)O)[C@@H](O)[C@H](O)[C@H]3N)[C@@H](N)C[C@H]2N)OC[C@]1(C)O [G418]
- IC50 (effective inhibitory concentration): 11 µg/mL (≈ 22.2 µM)
- IC90 (effective inhibitory concentration): 39 µg/mL (≈ 78.5 µM)
